From US20080207708A1, “Oxazole and Thiazole Compounds and Their Use in the Treatment of Pge2 Mediated Disorders” (GLAXO GROUP LIMITED, priority 2005, published 2008)

Molecular target: T1, EP1 receptors (Homo sapiens, UniProt P34995)
T1 sequence (P34995 1-402): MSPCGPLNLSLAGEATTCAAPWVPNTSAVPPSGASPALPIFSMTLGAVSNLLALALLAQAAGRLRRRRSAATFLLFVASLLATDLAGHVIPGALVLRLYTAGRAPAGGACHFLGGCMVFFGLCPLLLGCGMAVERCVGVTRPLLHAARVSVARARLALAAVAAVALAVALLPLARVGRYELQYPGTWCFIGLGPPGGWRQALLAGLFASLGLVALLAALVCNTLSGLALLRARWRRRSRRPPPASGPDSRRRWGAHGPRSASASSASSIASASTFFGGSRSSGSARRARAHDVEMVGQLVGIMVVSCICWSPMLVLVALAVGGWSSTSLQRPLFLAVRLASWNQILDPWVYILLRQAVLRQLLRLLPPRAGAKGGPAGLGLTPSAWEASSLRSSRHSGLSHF
Test: Binding assay for the human prostanoid EP1 receptor (competition with [3H]-PGE2)
Set-up: expressed in transfected cells; host or cells: CHO-K1 cells, membrane fraction
Conditions: [3H]-PGE2 competition; averages of a number of experiments; read-out: pIC50 value, binding assay for the human prostanoid EP1 receptor (converted)
Protocol: Competition assay using [^3H]-PGE2.
Compound potencies are determined using a radioligand binding assay. In this assay compound potencies are determined from their ability to compete with tritiated prostaglandin E2 ([^3H]-PGE2) for binding to the human EP1 receptor.
This assay utilises Chinese hamster ovary-K1 (CHO-K1) cells into which a stable vector containing the EP1 cDNA has previously been transfected. Cells are cultured in suitable flasks containing culture medium such as DMEM:F-12 supplemented with 10% v/v foetal calf serum, 2 mM L-glutamine, 0.25 mg/ml geneticin, 10 μg/ml puromycin and 10 μM indomethacin.
Cells are detached from the culture flasks by incubation in calcium and magnesium free phosphate buffered saline containing 1 mM disodium ethylenediaminetetraacetic acid (Na2EDTA) and 10 μM indomethacin for 5 min. The cells are isolated by centrifugation at 250×g for 5mins and suspended in an ice cold buffer such as 50 mM Tris, 1 mM Na2EDTA, 140 mM NaCl, 10 μM indomethacin (pH 7.4). The cells are homogenised using a Polytron tissue disrupter (2×10 s burst at full setting), centrifuged at 48,000×g for 20mins and the pellet containing the membrane fraction is washed (optional) three times by suspension and centrifugation at 48,000×g for 20mins. The final membrane pellet is suspended in an assay buffer such as 10 mM 2-[N-morpholino]ethanesulphonic acid, 1 mM Na2EDTA, 10 mM MgCl2 (pH 6). Aliquots are frozen at […] until required.
For the binding assay the cell membranes, competing compounds and [^3H]-PGE2 (3 nM final assay concentration) are incubated in a final volume of 100 μl for 30 min at 30° C. All reagents are prepared in assay buffer. Reactions are terminated by rapid vacuum filtration over GF/B filters using a Brandell cell harvester. The filters are washed with ice cold assay buffer, dried and the radioactivity retained on the filters is measured by liquid scintillation counting in Packard TopCount scintillation counter.
The data are analysed using non linear curve fitting techniques to determine the concentration of compound producing 50% inhibition of specific binding (IC50).

Compound | IC50 [nM]
O=C(O)c1csc(Cc2cc(Cl)ccc2OCc2ccc(Cl)cc2Cl)n1 [Example 17, 2-[(5-chloro-2-{[(2,4-dichlorophenyl)methyl]oxy}phenyl)methyl]-1,3-thiazole-4-carboxylicacid] | ≤ 31.6
O=C(O)c1csc(Cc2cc(Cl)ccc2OCc2cc(F)c(F)cc2F)n1 [Example 18, Sodium 2-[(5-chloro-2-{[(2,4,5-trifluorophenyl)methyl]oxy}phenyl)methyl]-1,3-thiazole-4-carboxylate] | ≤ 31.6
O=C(O)c1csc(Cc2cc(Cl)ccc2OCc2c(F)ccc(F)c2F)n1 [Example 19, Sodium 2-[(5-chloro-2-{[(2,3,6-trifluorophenyl)methyl]oxy}phenyl)methyl]-1,3-thiazole-4-carboxylate] | ≤ 1000
O=C(O)c1csc(Cc2cc(Cl)ccc2OCc2ccc(F)c(F)c2F)n1 [Example 20, Sodium 2-[(5-chloro-2-{[(2,3,4-trifluorophenyl)methyl]oxy}phenyl)methyl]-1,3-thiazole-4-carboxylate] | ≤ 1000
O=C(O)c1csc(Cc2cc(Cl)ccc2OCc2cc(F)c(F)c(F)c2)n1 [Example 21, Sodium 2-[(5-chloro-2-{[(3,4,5-trifluorophenyl)methyl]oxy}phenyl)methyl]-1,3-thiazole-4-carboxylate] | ≤ 1000
O=C(O)c1csc(Cc2cc(Cl)ccc2OCc2ccc(Br)cc2F)n1 [Example 22, Sodium 2-[(2-{[(4-bromo-2-fluorophenyl)methyl]oxy}-5-chlorophenyl)methyl]-1,3-thiazole-4-carboxylate] | ≤ 31.6
CC(C)COc1ccc(Cl)cc1Cc1nc(C(=O)O)cs1 [Example 23, Sodium 2-({5-chloro-2-[(2-methylpropyl)oxy}phenyl}methyl)-1,3-thiazole-4-carboxylate] | ≤ 31.6
O=C(O)c1csc(Cc2cc(C(F)(F)F)ccc2OCc2ccccc2)n1 [Example 24, Sodium 2-{[2-[(phenylmethyl)oxy]-5-(trifluoromethyl)phenyl]methyl}-1,3-thiazole-4-carboxylate] | ≤ 31.6
O=C(O)c1csc(Cc2cc(C(F)(F)F)ccc2OCc2ccc(F)cc2)n1 [Example 25, Sodium 2-{[2-{[(4-fluorophenyl)methyl]oxy}-5-(trifluoromethyl)phenyl]methyl}-1,3-thiazole-4-carboxylate] | ≤ 1000
O=C(O)c1csc(Cc2cc(C(F)(F)F)ccc2OCc2ccc(F)cc2F)n1 [Example 26, Sodium 2-{[2-{[(2,4-difluorophenyl)methyl]oxy}-5-(trifluoromethyl)phenyl]methyl}-1,3-thiazole-4-carboxylate] | ≤ 31.6
O=C(O)c1csc(Cc2cc(Cl)ccc2OCC2CCCC2)n1 [Example 27, Sodium 2-({5-chloro-2-[(cyclopentylmethyl)oxy]phenyl}methyl)-1,3-thiazole-4-carboxylate] | ≤ 31.6
O=C(O)c1csc(Cc2cc(C(F)(F)F)ccc2OCc2ccccc2Br)n1 [Example 28, Sodium 2-{[2-{[(2-bromophenyl)methyl]oxy}-5-(trifluoromethyl)phenyl]methyl}-1,3-thiazole-4-carboxylate] | ≤ 1000
O=C(O)c1csc(Cc2cc(C(F)(F)F)ccc2OCc2ccccc2F)n1 [Example 29, Sodium 2-{[2-{[(2-fluorophenyl)methyl]oxy}-5-(trifluoromethyl)phenyl]methyl}-1,3-thiazole-4-carboxylate] | ≤ 31.6
O=C(O)c1csc(Cc2cc(C(F)(F)F)ccc2OCc2ccccc2Cl)n1 [Example 30, Sodium 2-{[2-{[(2-chlorophenyl)methyl]oxy}-5-(trifluoromethyl)phenyl]methyl}-1,3-thiazole-4-carboxylate] | ≤ 31.6
O=C(O)c1csc(Cc2cc(C(F)(F)F)ccc2OCc2ccc(Br)cc2)n1 [Example 31, Sodium 2-{[2-{[(4-bromophenyl)methyl]oxy}-5-(trifluoromethyl)phenyl]methyl}-1,3-thiazole-4-carboxylate] | ≤ 31.6
O=C(O)c1csc(Cc2cc(C(F)(F)F)ccc2OCc2ccc(Cl)cc2F)n1 [Example 32, Sodium 2-{[2-{[(4-chloro-2-fluorophenyl)methyl]oxy}-5-(trifluoromethyl)phenyl]methyl}-1,3-thiazole-4-carboxylate] | ≤ 31.6
O=C(O)c1csc(Cc2cc(C(F)(F)F)ccc2OCc2ccc(F)cc2Cl)n1 [Example 33, Sodium 2-{[2-{[(2-chloro-4-fluorophenyl)methyl]oxy}-5-(trifluoromethyl)phenyl]methyl}-1,3-thiazole-4-carboxylate] | ≤ 31.6
O=C(O)c1csc(Cc2cc(C(F)(F)F)ccc2OCc2cccc(F)c2F)n1 [Example 34, Sodium 2-{[2-{[(2,3-difluorophenyl)methyl]oxy}-5-(trifluoromethyl)phenyl]methyl}-1,3-thiazole-4-carboxylate] | ≤ 31.6
O=C(O)c1csc(Cc2cc(C(F)(F)F)ccc2OCc2ccc(F)c(F)c2F)n1 [Example 35, Sodium 2-{[5-(trifluoromethyl)-2-{[(2,3,4-trifluorophenyl)methyl]oxy}phenyl)methyl]-1,3-thiazole-4-carboxylate] | ≤ 1000
O=C(O)c1csc(Cc2cc(C(F)(F)F)ccc2OCc2cc(F)c(F)cc2F)n1 [Example 36, Sodium 2-[(5-(trifluoromethyl)-2-{[(2,4,5-trifluorphenyl)methyl]oxy}phenyl)methyl]-1,3-thiazole-4-carboxylate] | ≤ 31.6
CCCOc1ccc(C(F)(F)F)cc1Cc1nc(C(=O)O)cs1 [Example 37, Sodium 2-{[2-(propyloxy)-5-(trifluoromethyl)phenyl]methyl}-1,3-thiazole-4-carboxylate] | ≤ 31.6
CCCCOc1ccc(C(F)(F)F)cc1Cc1nc(C(=O)O)cs1 [Example 38, Sodium 2-{[2-(butyloxy)-5-(trifluoromethyl)phenyl]methyl}-1,3-thiazole-4-carboxylate] | ≤ 1000
O=C(O)c1csc(Cc2cc(C(F)(F)F)ccc2OCC2CC2)n1 [Example 39, Sodium 2-{[2-[(cyclopropylmethyl)oxy]-5-(trifluoromethyl)phenyl]methyl}-1,3-thiazole-4-carboxylate] | ≤ 31.6
CCCCCOc1ccc(C(F)(F)F)cc1Cc1nc(C(=O)O)cs1 [Example 40, Sodium 2-{[2-(pentyloxy)-5-(trifluoromethyl)phenyl]methyl}-1,3-thiazole-4-carboxylate] | ≤ 1000
CC(C)CCOc1ccc(C(F)(F)F)cc1Cc1nc(C(=O)O)cs1 [Example 41, Sodium 2-{[2-[(3-methylbutyl)oxy]-5-(trifluoromethyl)phenyl]methyl}-1,3-thiazole-4-carboxylate] | ≤ 31.6
O=C(O)c1csc(Cc2cc(C(F)(F)F)ccc2OCC2CCCCC2)n1 [Example 42, Sodium 2-{[2-[(cyclohexylmethyl)oxy]-5-(trifluoromethyl)phenyl]methyl}-1,3-thiazole-4-carboxylate] | ≤ 1000
O=C(O)c1csc(Cc2cc(C(F)(F)F)ccc2OCC2CCC2)n1 [Example 43, Sodium 2-{[2-[(cyclobutylmethyl)oxy]-5-(trifluoromethyl)phenyl]methyl}-1,3-thiazole-4-carboxylate] | ≤ 31.6
CC(C)COc1ccc(C(F)(F)F)cc1Cc1nc(C(=O)O)cs1 [Example 44, Sodium 2-{[2-[(2-methylpropyl)oxy]-5-(trifluoromethyl)phenyl]methyl}-1,3-thiazole-4-carboxylate] | ≤ 31.6
